According to patent publication US5424303A, “Substituted aminophosphonate derivatives, process for their preparation and pharmaceutical compositions containing them” (Symphar SA, priority 1992, dated 1995):

These compounds were tested on plasma cholesterol (assay: Hypocholesterolemic activity, plasma cholesterol in mice fed test compound in diet). Conditions: Mus musculus, feed or water, 240 h, read-out: Plasma Cholesterol (% Control), 0.1% compound in food, 10 days, ca. 180 mg/kg daily, mouse.
Format: in vivo, OF1 strain mice
Protocol: A. Hypocholesterolemic activity
Mouse fed a normal diet is a convenient model which was proposed by several authors (P. Olivier et al, Atherosclerosis 70, 107-114, 1988) ,for the screening for hypocholesterolemic drugs. OF1 strain mice (Iffa Credo) weighing between 25 and 35 g were divided into 5 groups of 5 animals each, four groups received the test compounds and the fifth group served as control. The test compounds were dissolved in diethyl ether. The ether solution was added to food to obtain a final concentration of 0.1%. compound in food. Ether was then evaporated at room temperature. The animals were fed for 10 days, the dally food intake corresponds to ca. 180 mg/kg. After an overnight fast, they were sacrificed by decapitation under ether anesthesia. Blood samples were collected using EDTA as anticoagulant.
Plasma cholesterol was measured by an enzymatic test (DIAMED, Morat, Switzerland). The mean values of each group receiving the test or reference compounds were expressed as percent of mean value of the contemporary control.

Going from CCOP(=O)(OCC)C(NCc1cc(C(C)(C)C)c(O)c(C(C)(C)C)c1)c1cc(C(C)(C)C)c(O)c(C(C)(C)C)c1 (stereo not drawn) [Compound 40, Diethyl α-(3,5-di-tert-butyl-4-hydroxyphenyl)-N-(3,5-di-tert-butyl-4-hydroxybenzyl)-aminomethylphosphonate] to CCOP(=O)(OCC)C(NCc1ccncc1)c1cc(C(C)(C)C)c(O)c(C(C)(C)C)c1 (stereo not shown) [Compound 86], the change in vivo at 180 mg/kg/day rises from -25% to -15%.

First: CCCCOc1ccc(C(NCCc2ccccc2)P(=O)(OCC)OCC)cc1 (stereo not shown) [Compound 69]
Second: CCOP(=O)(OCC)C(NC(=O)OCc1ccccc1)c1cc(C(C)(C)C)c(O)c(C(C)(C)C)c1 (stereo not drawn) [Compound 85, Diethyl α-(3,5-di-tert-butyl-4-hydroxyphenyl)-N-benzyloxycarbonyl-aminomethylphosphonate]
The change in vivo at 180 mg/kg/day of the first is higher: 2% for the first, 0% for the second.

Compared with C=CCNC(c1cc(C(C)(C)C)c(O)c(C(C)(C)C)c1)P(=O)(OCC)OCC (stereo not drawn) [Compound 84, Diethyl α-(3,5-di-tert-butyl-4-hydroxyphenyl)-N-allyl-aminomethylphosphonate], CCOP(=O)(OCC)C(N)c1cc(C(C)(C)C)c(O)c(C(C)(C)C)c1 (stereo not drawn) [Compound 83, Diethyl α-(3,5-di-tert-butyl4-hydroxyphenyl)-aminomethyl-phosphonate] is higher in change in vivo at 180 mg/kg/day: -19% for the first, 4% for the second.

Compared with CCOP(=O)(OCC)C(NC1COC(C)(C)OC1c1ccccc1)c1cc(C(C)(C)C)c(O)c(C(C)(C)C)c1 (stereo not shown) [Compound 91], CCOP(=O)(OCC)C(NCCN1CCCCC1)c1cc(C(C)(C)C)c(O)c(C(C)(C)C)c1 (stereo not shown) [Compound 34] is higher in change in vivo at 180 mg/kg/day: -18% for the first, -5% for the second.

Same assay, conditions: same experimental conditions; reference drugs, mouse

Compared with Cc1ccc(C)c(OCCCC(C)(C)C(=O)O)c1 [Gemfibrozil, reference compound], CC(C)OC(=O)C(C)(C)Oc1ccc(C(=O)c2ccc(Cl)cc2)cc1 [Fenofibrate, reference compound] is lower in “plasma cholesterol values as compared to control” value: -7% for the first, -26% for the second.

In the case of CCOC(=O)C(C)(C)Oc1ccc(Cl)cc1 [Clofibrate, reference compound], the “plasma cholesterol values as compared to control” value is reported as “+4%”.

What follows are compounds tested on lipid peroxidation (rat liver homogenate) (assay: Antioxidant activity, inhibition of iron induced lipid peroxidation in liver homogenate). Conditions: FeSO4, 37° C., 2 h; <25 μM where IC50 was not determined.
Format: biochemical, Wistar rat
Protocol: The liver of a Wistar rat anesthetized with ether was collected and homogenized in 4 volumes of phosphate buffer (+4° C., pH 7.4) by means of a Potter. After centrifugation at 2000 rpm for 10 min the supernatant obtained was kept at +4° C. Lipid peroxidation was carried out in presence of FeSOhd according to the method described by A. T. Quitaniha et at, Ann.
The mixture contained 1.7 ml phosphate buffer, 0.2 ml homogenate and 0.1 ml of a 2 mM FeSO4 solution. The test compounds were added in a volume of 61 μl of ethanol or DMSO. Oxydation was carried out at 37° C. for 2 h and was stopped by the addition of 20 μl of 2% ethanolic solution of BHT.

CCOP(=O)(OCC)C(Nc1ccc(N2C(=O)c3ccc(Cl)cc3C2=O)c(C)c1)c1cc(C(C)(C)C)c(O)c(C(C)(C)C)c1 (stereo not shown) [Compound 11] and CCOP(=O)(OCC)C(Nc1cccc(C)c1)c1cc(C(C)(C)C)c(O)c(C(C)(C)C)c1 (stereo not shown) [Compound 8] cannot be ordered by IC50: 2.7 µM for the first, < 25 µM for the second.

CCOP(=O)(OCC)C(c1cc(C(C)(C)C)c(O)c(C(C)(C)C)c1)N(CCOc1ccccc1)C(=O)C(F)(F)F (stereo not shown) [Compound 57] and CCOP(=O)(OCC)C(c1cc(C(C)(C)C)c(O)c(C(C)(C)C)c1)N(CCc1ccccc1)C(=O)C(F)(F)F (stereo not shown) [Compound 54] cannot be ordered by IC50: < 25 µM for the first, < 25 µM for the second.

CCCCCc1ccc(N(C(=O)C(F)(F)F)C(c2cc(C(C)(C)C)c(O)c(C(C)(C)C)c2)P(=O)(OCC)OCC)cc1 (stereo not shown) [Compound 58] and CCOP(=O)(OCC)C(c1cc(C(C)(C)C)c(O)c(C(C)(C)C)c1)N(CCCCc1ccccc1)C(=O)C(F)(F)F (stereo not shown) [Compound 66] cannot be ordered by IC50: < 25 µM for the first, < 25 µM for the second.

CCOP(=O)(OCC)C(c1cc(C(C)(C)C)c(O)c(C(C)(C)C)c1)N(Cc1ccccc1)C(C)=O (stereo not shown) [Compound 51] and CCOP(=O)(OCC)C(c1cc(C(C)(C)C)c(O)c(C(C)(C)C)c1)N(Cc1ccccc1)C(=O)C(F)(F)F (stereo not shown) [Compound 52] cannot be ordered by IC50: < 25 µM for the first, < 25 µM for the second.

CCOP(=O)(OCC)C(c1cc(C(C)(C)C)c(O)c(C(C)(C)C)c1)N(C(=O)C(F)(F)F)C(Cc1ccccc1)c1ccccc1 (stereo not shown) [Compound 56] and CCOP(=O)(OCC)C(c1cc(C(C)(C)C)c(O)c(C(C)(C)C)c1)N(CCCc1ccccc1)C(=O)C(F)(F)F (stereo not drawn) [Compound 64, Diethyl α-(3,5-di-tert-butyl-4-hydroxyphenyl)-N-trifluoroacetyl-N-(3-phenylpropyl)-aminomethylphosphonate] cannot be ordered by IC50: < 25 µM for the first, < 25 µM for the second.

CCCCOP(=O)(OCCCC)C(c1cc(C(C)(C)C)c(O)c(C(C)(C)C)c1)N(CCc1ccc(Cl)cc1)C(=O)C(F)(F)F (stereo not shown) [Compound 55] was tested, and the IC50 was > 25 µM.
